Laboratory results from patent publication US8188151B2, “Methods for treating diabetes” (Omega Bio-Pharma (I.P.3) Limited, priority 2003, dated 2012).
Counter-ions that a name gives are not always drawn.

Experiments:
GK diabetic rats = assay: Glucose tolerance test in GK diabetic rats (Example 2); type: in vivo, rat; conditions: for glucose levels in glucose tolerance test (in words): GK diabetic rats; for Glucose tolerance test, plasma glucose, Fasting / Glucose tolerance test, plasma glucose, 0.5 hour / Glucose tolerance test, plasma glucose, 1 hour / Glucose tolerance test, plasma glucose, 2 hours / Glucose tolerance test, plasma glucose, 3 hours: Mean ± STD, DC 22.5 mg/kg BW, Metformin 34 mg/kg BW by gavage; for Glucose tolerance test, plasma glucose, Fasting: 20 days (combination in second 10 days); for Glucose tolerance test, plasma glucose, 0.5 hour / Glucose tolerance test, plasma glucose, 1 hour / Glucose tolerance test, plasma glucose, 2 hours / Glucose tolerance test, plasma glucose, 3 hours: after glucose 2 g/kg BW, 20 days
Experimental: Food and water were provided ad libitum.
The 36 GK rats were divided into 4 groups based on body weight (BW) and plasma glucose level. […] All animals were treated at 10:00 for 20 days.
(§1) The four groups of animals were kept in the same room (temp 23±3° C., relative humidity 65±1%) in different cages with wire mesh bottoms to reduce coprophagia throughout the experiment. The rats were subjected to fasting overnight from 10:00 pm to 09:30 of the following day before being subjected to a glucose tolerance test. The rats were treated with glucose 2 g/kg BW in 2 ml tap water at 09:30 for the glucose tolerance test and the blood was collected from the tail vein at 0.5, 1, 2, and 3 hours after glucose injection. Plasma glucose concentrations were determined by Glucotrendr2 equipment (Roche Diagnostics, Basel, Switzerland). Plasma insulin concentrations were determined by radioimmunoassay (Insulin RIA Kit, NO:0410, purchased from Shanghai Radioimmunoassay Research Institution). […] The “p” value is the comparison with the control group.

[1] = test system: Goto-Kakizaki Wistar rats (GK rats); assay: Oral glucose tolerance test and starving plasma glucose in GK rats (Example 1); type: in vivo, rat
Experimental: Nineteen male Goto-Kakizaki Wistar rats (GK rats) with weights of 300±20 g were kept in steel cages, 3-4 rats per cage. The cages were changed every two days. Indoor temperature and relative humidity was kept at 23±3° C. and 65±1% respectively. Feed and drinking water was provided. GK rats were permitted a one-month period for adaptation.
One day prior to experimentation, at 17:00, all of the feed was removed from all groups, but not the drinking water. On the second day, at 09:30, starving plasma glucose was measured for all GK rats. At 10:00, glucose tolerance test (2 g/kg BW) was performed and the plasma glucose level was measured as well for all GK rats. On the third day, the GK rats of the control group were orally administered a saline solution (2 ml/rat) and the GK rats in treatment I and II groups were orally administered a solution of Metformin (17 mg/kg body weight (BW), 2 ml once pre day at 09:30). This regimen was performed for the following several days. On the ninth day, starving plasma glucose was measured and oral glucose tolerance test was performed again for all GK rats in all groups.
On the tenth day, the regimen for the GK rats in the treatment II group was changed to an oral administration of Metformin with cysteamine hydrochloride (Metformin 17 mg/kg BW, cysteamine hydrochloride 15 mg/kg BW) for the following 6 days, while the regimen for the control group and the treatment I group remained unchanged. This regimen was performed for six days.
Six days following the change in regimen, starving plasma glucose was measured and glucose tolerance tests were performed, and blood and tissue samples were collected (liver, duodenum, pancreas gland, fat, and muscle) for all GK rats in all groups. Blood samples were stored at 4° C. for three hours and centrifuged for ten minutes at 3500 rpm. Then, the serum was collected and stored at −20° C. Tissue samples were placed in liquid nitrogen once collected and then stored in −80° C.
The glucose tolerance tests that were performed included the steps of starving the GK rats overnight. Next day at 09:30, starving plasma glucose was measured. At 10:00, oral administration of a glucose solution (2 g/kg BW) was performed. Blood samples were collected via tail vein at 0, 0.5, 1, 2, and 3 hours and then performed with the plasma glucose testing equipment.

adiponectin = assay: Adiponectin level in GK diabetic rats (Example 2); type: in vivo, rat; conditions: for Adiponectin: Mean ± STD, DC 22.5 mg/kg BW, Metformin 34 mg/kg BW
Experimental: The 36 GK rats were divided into 4 groups based on body weight (BW) and plasma glucose level. Group 1 (control, n=10) was treated with saline by gavage (2 ml/rat) Group 2 (DC, n=6) was treated with cysteamine hydrochloride by gavage (22.5 mg/kg BW in 2 ml tap water); Group 3 (Metformin, Met, n=10) was treated with Metformin by gavage (34 mg/kg BW in 2 ml tap water); Group 4 (Met+DC, n=10) was treated with Metformin 34 mg/kg BW/day in 2 ml tap water for the first 10 days and then was treated with both cysteamine hydrochloride 22.5 mg/kg BW plus Metformin 34 mg/kg BW in 2 ml tap water for the second 10 days. All animals were treated at 10:00 for 20 days.
as §1

Insulin = assay: Plasma insulin by radioimmunoassay in GK diabetic rats (Example 2); type: in vivo, rat; conditions: for Fasting Insulin: Mean ± STD, DC 22.5 mg/kg BW, Metformin 34 mg/kg BW
Experimental: (§2) The 36 GK rats were divided into 4 groups based on body weight (BW) and plasma glucose level. […] All animals were treated at 10:00 for 20 days. […] Plasma glucose concentrations were determined by Glucotrendr2 equipment (Roche Diagnostics, Basel, Switzerland). Plasma insulin concentrations were determined by radioimmunoassay (Insulin RIA Kit, NO:0410, purchased from Shanghai Radioimmunoassay Research Institution). The effects on plasma glucose level are shown in Table 4, the effects on plasma insulin and adiponectin levels are shown in Table 5, and the effects on different tissues are shown in Table 6. The “p” value is the comparison with the control group.

[2] = test system: glucose transporter (glut4); assay: Glucose transporter (glut4) expression in tissues of GK diabetic rats (Example 2); type: in vivo, rat; conditions: for expression of total glut4 in liver, muscles, adipocytes (in words): GK rats; for glut4 expression, adipocyte, fold changes compared with control level / glut4 expression, liver, fold changes compared with control level / glut4 expression, muscle, fold changes compared with control level: Mean ± STD, GK diabetic rats
Experimental: as §2

diabetic patients = assay: Open-label randomized trial in patients with diabetes type II (Example 3); type: in vivo, human
Experimental: The cysteamine alone (DC) group was treated with 540 mg/day of cysteamine hydrochloride.

[3] = late-phase, Metformin 17 mg/kg BW, cysteamine hydrochloride 15 mg/kg BW oral for 6 days
[4] = mid-phase, Treatment I group, 6 days oral Metformin 17 mg/kg BW, glucose 2 g/kg BW
[5] = mid-phase, Treatment II group (Metformin 17 mg/kg BW only, before cysteamine hydrochloride was added)
[6] = cysteamine hydrochloride 540 mg/day, two months
[7] = pre-treatment minus post-treatment

CN(C)C(=N)N=C(N)N [Metformin]
glucose levels in glucose tolerance test (in words) (GK diabetic rats): statistically significantly different
Glucose tolerance test, plasma glucose, Fasting (GK diabetic rats): 5.53 ± 0.53 mmol/L
Glucose tolerance test, plasma glucose, 0.5 hour (GK diabetic rats): 15.24 ± 1.34 mmol/L
Glucose tolerance test, plasma glucose, 1 hour (GK diabetic rats): 13.98 ± 0.95 mmol/L
Glucose tolerance test, plasma glucose, 2 hours (GK diabetic rats): 9.62 ± 0.83 mmol/L
Glucose tolerance test, plasma glucose, 3 hours (GK diabetic rats): 7.71 ± 1.37 mmol/L
duodenal plasma glucose levels and insulin resistance (in words) ([1]; GK rats, oral administration): to some extent, lowers
Glucose tolerance test, plasma glucose, 0.5 hour [1, 3]: 12.98
Glucose tolerance test, plasma glucose, 1 hour [1, 3]: 13.42
Glucose tolerance test, plasma glucose, 2 hours [1, 3]: 8.6
Glucose tolerance test, plasma glucose, 3 hours [1, 3]: 6.67
Glucose tolerance test, plasma glucose, Starving [1, 3]: 4.75
Glucose tolerance test, plasma glucose, Starving ([1]; mid-phase, Treatment I group, 6 days oral Metformin 17 mg/kg BW): 4.98
Glucose tolerance test, plasma glucose, 0.5 hour [1, 4]: 15.68
Glucose tolerance test, plasma glucose, 1 hour [1, 4]: 15.93
Glucose tolerance test, plasma glucose, 2 hours [1, 4]: 10.55
Glucose tolerance test, plasma glucose, 3 hours [1, 4]: 8.5
Glucose tolerance test, plasma glucose, 0.5 hour [1, 5]: 15.65
Glucose tolerance test, plasma glucose, 1 hour [1, 5]: 15.8
Glucose tolerance test, plasma glucose, 2 hours [1, 5]: 10.55
Glucose tolerance test, plasma glucose, 3 hours [1, 5]: 8.37
Glucose tolerance test, plasma glucose, Starving [1, 5]: 5.03
adiponectin (in words) (adiponectin): not
Adiponectin (adiponectin): 3917 ± 416 ng/mL
insulin levels (in words) (Insulin): decreased, but not statistically significant
Fasting Insulin (Insulin): 18.75 ± 3.98 IU/L
expression of total glut4 in liver, muscles, adipocytes (in words) [2]: increased, but not significantly
glut4 expression, adipocyte, fold changes compared with control level [2]: 2.14 ± 1.39 fold
glut4 expression, liver, fold changes compared with control level [2]: 2.43 ± 1.85 fold
glut4 expression, muscle, fold changes compared with control level [2]: 1.38 ± 0.67 fold
insulin-like growth factor 1 (IGF1) (in words) (diabetic patients): decrease

NCCS [cysteamine hydrochloride]
glucose levels in glucose tolerance test (in words) (GK diabetic rats): did not affect
Glucose tolerance test, plasma glucose, Fasting (GK diabetic rats): 5.80 ± 0.36 mmol/L
Glucose tolerance test, plasma glucose, 0.5 hour (GK diabetic rats): 16.68 ± 1.1 mmol/L
Glucose tolerance test, plasma glucose, 1 hour (GK diabetic rats): 15.68 ± 0.8 mmol/L
Glucose tolerance test, plasma glucose, 2 hours (GK diabetic rats): 11.00 ± 0.8 mmol/L
Glucose tolerance test, plasma glucose, 3 hours (GK diabetic rats): 8.33 ± 0.64 mmol/L
adiponectin (in words) (adiponectin): significantly increased
Adiponectin (adiponectin): 4318 ± 590 ng/mL
insulin levels (in words) (Insulin): did not affect
Fasting Insulin (Insulin): 22.46 ± 2.65 IU/L
expression of total glut4 in liver, muscles, adipocytes (in words) [2]: significantly increase
glut4 expression, adipocyte, fold changes compared with control level [2]: 2.7 ± 1.16 fold
glut4 expression, liver, fold changes compared with control level [2]: 3.77 ± 3.15 fold
glut4 expression, muscle, fold changes compared with control level [2]: 1.5 ± 0.74 fold
C peptide (CP) (in words) (diabetic patients): decreases significantly
HOMA (Homeostasis Model Assessment) (in words) (diabetic patients): decreases significantly
blood uric acid (UA) levels (in words) (diabetic patients): decreases significantly
fasting insulin (FINS) (in words) (diabetic patients): decreases significantly
insulin-like growth factor 1 (IGF1) (in words) (diabetic patients): decreases significantly
microalbuminuria (in words) (diabetic patients): obvious but not statistically significantly
24 h Microalbuminuria, Post-treatment (diabetic patients; [6]): 30.97 ± 25.12
FBS (fasting blood sugar), Post-treatment (diabetic patients; [6]): 8.21 ± 2.43
FCP (C peptide), Post-treatment (diabetic patients; [6]): 557 ± 119
FINS (fasting insulin), Post-treatment (diabetic patients; [6]): 13.25 ± 6.36
HOMA (Homeostasis Model Assessment), Post-treatment (diabetic patients; [6]): 5.43 ± 3.19
IGF, Post-treatment (diabetic patients; [6]): 44.37 ± 7.28
UA (blood uric acid), Post-treatment (diabetic patients; [6]): 359 ± 60.16
24 h Microalbuminuria, Paired Difference (diabetic patients; [7]): 11.77 ± 40.73
FBS, Paired Difference (diabetic patients; [7]): −0.69 ± 2.11
FCP, Paired Difference (diabetic patients; [7]): 182 ± 164
FINS, Paired Difference (diabetic patients; [7]): 22.14 ± 19.39
HOMA, Paired Difference (diabetic patients; [7]): 6.51 ± 4.94
IGF, Paired Difference (diabetic patients; [7]): 4.99 ± 5.12
UA, Paired Difference (diabetic patients; [7]): 29.5 ± 37.87
